Data: patent US10501479B2, “Benzenesulfonyl-asymmetric ureas and medical uses thereof” (HELSINN HEALTHCARE SA, priority 2016, dated 2019)

The compounds below were run against T1, GHSR-1a (HEK293/GHSR1a cell line) (Homo sapiens, UniProt Q92847) (assay: Ghrelin antagonist potency (IC50) with calcium FLIPR assay, ghrelin 10 nM). Conditions: HEK293/GHSR1a, ghrelin 10 nM, read-out: Activity IC50 (ghrelin antagonist potency).
T1 construct: expressed in transfected cells; host or cells: HEK293/GHSR1a cell line
T1 sequence (Q92847 whole entry): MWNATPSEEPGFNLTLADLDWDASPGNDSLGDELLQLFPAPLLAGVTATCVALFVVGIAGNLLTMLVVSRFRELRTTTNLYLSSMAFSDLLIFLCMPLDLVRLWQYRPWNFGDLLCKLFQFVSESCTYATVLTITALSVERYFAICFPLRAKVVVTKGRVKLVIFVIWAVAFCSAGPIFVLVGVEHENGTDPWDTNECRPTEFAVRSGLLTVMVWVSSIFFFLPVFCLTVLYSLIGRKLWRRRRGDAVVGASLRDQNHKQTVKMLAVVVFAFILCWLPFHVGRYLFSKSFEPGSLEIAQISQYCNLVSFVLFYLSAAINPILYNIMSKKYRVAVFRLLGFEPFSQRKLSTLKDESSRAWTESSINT
Type: cell-based
Procedure: Evaluation of Ghrelin Agonist (EC50) and Antagonist Potency (IC50) with Calcium FLIPR Assay:
The intracellular calcium assay was carried out in a 384-well format FLIPR™ (Molecular Device) HEK293/GHSR1a cell line. Cells were seeded 24 hr prior to the experiments at an optimal density per well. Preincubation with selected calcium dye lasted for 30-60 min at room temperature or 37° C. Test compounds, dissolved in DMSO, were added at the appropriate time and incubated for 15 min followed by the addition of ghrelin with FlexStation or FLIPR. Relative fluorescence was monitored by the FLIPR™ Molecular Device. EC50 and IC50 values were estimated from dose-response data using GraphPad Prism software. To check for GHSR-1a agonism, the compound was added at t=20 sec. and the calcium response was followed for 2 minutes. To check for GHSR-1a antagonism, the compound and Ghrelin (10 nM) were added to the cells at t=20 sec. and the calcium response was measured for 2 minutes. The potency of the antagonist was calculated by its ability to reduce the ghrelin response. Dose-response curves were made for relevant antagonists.

Row | IC50 [nM] | SMILES
1 | 246 | CCc1ccc(Cl)c(C(=O)NC(=O)Nc2ccc(S(=O)(=O)Nc3ccc4c(c3)CNCC4)cc2)c1 [H1263, 2-chloro-5-ethyl-N-((4-(N-(1,2,3,4-tetrahydroisoquinolin-7-yl)sulfamoyl)phenyl)carbamoyl) benzamide]
2 | 17.2 | CCc1ccc(Cl)c(C(=O)NC(=O)Nc2ccc(S(=O)(=O)Nc3ccc(CC(C)(C)N)cc3)cc2)c1 [H1254, N-((4-(N-(4-(2-amino-2-methylpropyl)phenyl)sulfamoyl)phenyl)carbamoyl)-2-chloro-5-ethylbenzamide]
3 | 68.9 | CC(c1ccccc1)N1Cc2cc(S(=O)(=O)Cc3ccc4c(c3)CNC4)ccc2NC1=O (centres unmarked) [H1395, 6-((isoindolin-5-ylmethyl)sulfonyl)-3-(1-phenylethyl)-3,4-dihydroquinazolin-2(1H)-one]

Same assay, conditions: ghrelin antagonist potency, read-out: IC50 (Activity)

Row | SMILES | IC50 [nM]
4 | CCOc1ccc(Cl)c(C(=O)NC(=O)Nc2ccc(S(=O)(=O)Nc3ccc4c(c3)CNC4)cc2)c1 [H1252, 2-chloro-5-ethoxy-N-((4-(N-(isoindolin-5-yl)sulfamoyl)phenyl)carbamoyl) benzamide] | 440
5 | CN1Cc2ccc(CS(=O)(=O)c3ccc(NC(=O)NCC4CC4)cc3)cc2C1 [H1230, 1-(cyclopropylmethyl)-3-(4-(((2-methylisoindolin-5-yl)methyl)sulfonyl)phenyl)urea] | 6400
6 | COC(=O)c1ccc(NS(=O)(=O)c2ccc(NC(=O)N[C@@H](C)c3cccc(Cl)c3Cl)cc2)cc1 [H1061, methyl (S)-4-((4-(3-(1-(2,3-dichlorophenyl)ethyl)ureido)phenyl)sulfonamido)benzoate] | 2870
7 | C[C@H](NC(=O)Nc1ccc(S(=O)(=O)Nc2ccccc2)cc1)c1cccc(Cl)c1Cl [H0965, (S)-4-(3-(1-(2,3-dichlorophenyl)ethyl)ureido)-N-phenylbenzenesulfonamide] | > 30000
8 | COc1ccc(C(C)NC(=O)Nc2ccc(S(=O)(=O)Cc3ccc(CO)cc3)cc2)c2ccccc12 (centres unmarked) [H1140, 1-(4-((4-(hydroxymethyl)benzyl)sulfonyl)phenyl)-3-(1-(4-methoxynaphthalen-1-yl)ethyl)urea] | ≥ 30000
9 | C[C@H](NC(=O)Nc1ccc(S(=O)(=O)Nc2ccc(-c3ncc[nH]3)cc2)cc1)c1cccc(Cl)c1Cl [H1110, (S)-N-(4-(1H-imidazol-2-yl)phenyl)-4-(3-(1-(2,3-dichlorophenyl)ethyl)ureido) benzenesulfonamide] | 950
10 | O=C(NCc1cncs1)Nc1ccc(S(=O)(=O)Cc2ccc3c(c2)CNC3)cc1 [H1208, 1-(4-((isoindolin-5-ylmethyl)sulfonyl)phenyl)-3-(thiazol-5-ylmethyl)urea] | > 30000
11 | CCc1ccc(Cl)c(C(=O)NC(=O)Nc2ccc(S(=O)(=O)Cc3ccc(CC(C)(C)N)cc3)cc2)c1 [H1253, N-((4-((4-(2-amino-2-methylpropyl)benzyl)sulfonyl)phenyl)carbamoyl)-2-chloro-5-ethylbenzamide] | 86.8
12 | COc1ccc([C@H](C)NC(=O)Nc2ccc(S(=O)(=O)Nc3ccc4c(c3)CCN(S(C)(=O)=O)C4)cc2)c(Cl)c1Cl [H1033, (S)-4-(3-(1-(2,3-dichloro-4-methoxyphenyl)ethyl)ureido)-N-(2-(methylsulfonyl)-1,2,3,4-tetrahydroisoquinolin-6-yl)benzenesulfonamide] | 3020
13 | C[C@H](NC(=O)Nc1ccc(S(=O)(=O)Cc2ccc(C(N)=O)cc2)cc1)c1cccc(Cl)c1Cl [H1073, (S)-4-(((4-(3-(1-(2,3-dichlorophenyl)ethyl)ureido)phenyl)sulfonyl)methyl)benzamide] | > 30000
14 | C[C@H](NC(=O)Nc1ccc(S(=O)(=O)Cc2ccc(C(=O)O)cc2)cc1)c1cccc(Cl)c1Cl [H1059] | > 30000
15 | CC(=O)N(C)S(=O)(=O)c1ccc(NC(=O)N[C@@H](C)c2ccc(-c3cnccn3)c(Cl)c2Cl)cc1 [H0954, (S)-N-((4-(3-(1-(2,3-dichloro-4-(pyrazin-2-yl)phenyl)ethyl)ureido)phenyl)sulfonyl)-N-methylacetamide] | > 30000
16 | O=C(NCc1cccc(Cl)c1Cl)Nc1ccc(S(=O)(=O)Cc2ccc3c(c2)NCC3)cc1 [H1046, 1-(2,3-dichlorobenzyl)-3-(4-((indolin-6-ylmethyl)sulfonyl)phenyl)urea] | 1990
17 | C[C@H](NC(=O)Nc1ccc(S(=O)(=O)Nc2ccc3c(c2)CCCN3)cc1)c1cccc(Cl)c1Cl [H1003, (S)-4-(3-(1-(2,3-dichlorophenyl)ethyl)ureido)-N-(1,2,3,4-tetrahydroquinolin-6-yl)benzenesulfonamide] | 2020
18 | CCc1ccc(Cl)c(C(=O)NC(=O)Nc2ccc(S(=O)(=O)Cc3ccc4c(c3)CNC4)cc2)c1 [H1248, 2-chloro-5-ethyl-N-((4-((isoindolin-5-ylmethyl)sulfonyl)phenyl)carbamoyl)benzamide] | 283
19 | COc1ccc([C@H](C)NC(=O)Nc2ccc(S(=O)(=O)Nc3ccc4[nH]ccc4c3)cc2)c(Cl)c1Cl [H0990, (S)-4-(3-(1-(2,3-dichloro-4-methoxyphenyl)ethyl)ureido)-N-(1H-indol-5-yl) benzenesulfonamide] | 823

Continued, values first:

Row | IC50 [nM] | SMILES
20 | ≥ 30000 | C[C@H](NC(=O)Nc1ccc(S(=O)(=O)CCN2CCOCC2)cc1)c1cccc(Cl)c1Cl [H1096, (S)-1-(1-(2,3-dichlorophenyl)ethyl)-3-(4-((2-morpholinoethyl)sulfonyl)phenyl)urea]
21 | 8180 | COC(=O)c1cccc(CS(=O)(=O)c2ccc(NC(=O)N[C@@H](C)c3cccc(Cl)c3Cl)cc2)c1 [H1087, methyl (S)-3-(((4-(3-(1-(2,3-dichlorophenyl)ethyl)ureido)phenyl)sulfonyl)methyl)benzoate]
22 | 3160 | C[C@H](NC(=O)Nc1ccc(S(=O)(=O)Cc2ccc(CO)cc2)cc1)c1ccccc1 [H1222, (S)-1-(4-((4-(hydroxymethyl)benzyl)sulfonyl)phenyl)-3-(1-phenylethyl)urea]
23 | 4350 | CC(NC(=O)N(C)c1ccc(S(=O)(=O)Cc2ccc3c(c2)CNC3)cc1)c1ccccc1 (centres unmarked) [H1213, 1-(4-((isoindolin-5-ylmethyl)sulfonyl)phenyl)-1-methyl-3-(1-phenylethyl)urea]
24 | 3580 | C[C@H](NC(=O)Nc1ccc(S(=O)(=O)CC2CC2)cc1)c1cccc(Cl)c1Cl [H1078, (S)-1-(4-((cyclopropylmethyl)sulfonyl)phenyl)-3-(1-(2,3-dichlorophenyl)ethyl)urea]
25 | ≥ 30000 | C[C@H](NC(=O)Nc1ccc(S(=O)(=O)Cc2ccc(C#N)cc2)cc1)c1cccc(Cl)c1Cl [H1101, (S)-1-(4-((4-cyanobenzyl)sulfonyl)phenyl)-3-(1-(2,3-dichlorophenyl)ethyl)urea]
26 | 6580 | Cc1ccc(NS(=O)(=O)c2ccc(NC(=O)N[C@@H](C)c3cccc(Cl)c3Cl)cc2)cc1 [H0966, (S)-4-(3-(1-(2,3-dichlorophenyl)ethyl)ureido)-N-(p-tolyl)benzenesulfonamide]
27 | 6380 | COc1ccc([C@H](C)NC(=O)Nc2ccc(S(=O)(=O)Nc3ccc4c(c3)CCCN4)cc2)c(Cl)c1Cl [H1008, (S)-4-(3-(1-(2,3-dichloro-4-methoxyphenyl)ethyl)ureido)-N-(1,2,3,4-tetrahydroquinolin-6-yl)benzenesulfonamide]
28 | 2040 | C[C@H](NC(=O)N(C)c1ccc(S(=O)(=O)Nc2ccc(CC(C)(C)N)cc2)cc1)c1ccc(-c2cnccn2)c(Cl)c1Cl [H0942, (S)-N-(4-(2-amino-2-methylpropyl)phenyl)-4-(3-(1-(2,3-dichloro-4-(pyrazin-2-yl)phenyl)ethyl)-1-methylureido) benzenesulfonamide]
29 | 1370 | O=C(NC(=O)c1cc(N2CCOCC2)ccc1Cl)Nc1ccc(S(=O)(=O)Nc2ccc3c(c2)CNC3)cc1 [H1250, 2-chloro-N-((4-((isoindolin-5-yl)sulfamoyl)phenyl)carbamoyl)-5-morpholinobenzamide]
30 | 14900 | COc1ccc([C@H](C)NC(=O)Nc2ccc(S(=O)(=O)Cc3ccc4c(c3)CCN(S(C)(=O)=O)C4)cc2)c(Cl)c1Cl [H1026, (S)-1-(1-(2,3-dichloro-4-methoxyphenyl)ethyl)-3-(4-(((2-(methylsulfonyl)-1,2,3,4-tetrahydroisoquinolin-6-yl)methyl)sulfonyl)phenyl)urea]
31 | 9.5 | COc1ccc(C(C)(C)NC(=O)Nc2ccc(S(=O)(=O)Nc3ccc(CC(C)(C)N)cc3)cc2)c(Cl)c1Cl [H0975, N-(4-(2-amino-2-methylpropyl)phenyl)-4-(3-(2-(2,3-dichloro-4-methoxyphenyl)propan-2-yl)ureido)benzenesulfonamide]
32 | 183 | C[C@H](NC(=O)Nc1ccc(S(=O)(=O)Nc2ccc(N)nc2)cc1)c1cccc(Cl)c1Cl [H1126, (S)-N-(6-aminopyridin-3-yl)-4-(3-(1-(2,3-dichlorophenyl)ethyl)ureido) benzenesulfonamide]
33 | 1430 | C[C@H](NC(=O)Nc1ccc(S(=O)(=O)Nc2ccc(CCO)cc2)cc1)c1ccccc1Cl [H1095, (S)-4-(3-(1-(2-chlorophenyl)ethyl)ureido)-N-(4-(2-hydroxyethyl)phenyl) benzenesulfonamide]
34 | 20000 | COC(=O)c1ccc(CS(=O)(=O)c2ccc(NC(=O)N[C@@H](C)c3cccc(Cl)c3Cl)cc2)cc1 [H1058, methyl (S)-4-(((4-(3-(1-(2,3-dichlorophenyl)ethyl)ureido)phenyl)sulfonyl)methyl)benzoate]
35 | > 30000 | C[C@H](NC(=O)Nc1ccc(S(=O)(=O)C2CCN(C)CC2)cc1)c1ccccc1 [H1237, (S)-1-(4-((1-methylpiperidin-4-yl)sulfonyl)phenyl)-3-(1-phenylethyl)urea]
